# Results from patent publication US20230405028A1 (priority 2020, published 2023).
# Read-outs that look alike come from different tables or passages of the source.
# What was measured:
# [1] = test system: IL-8; experiment: IL-8 in HSIEC cells treated with TNF-α/IFN-γ; format: cell-based, human; details: single agent, escalating doses
# [2] = test system: Human primary small intestinal epithelial cells (HSIEC)
# [3] = test system: COX-2; experiment: COX-2 in HSIEC cells treated with TNF-α/IFN-γ (western blot, densitometry); format: cell-based, human; details: single agent, escalating doses
# Description: (§1) Cell Culture: Human primary small intestinal epithelial cells (HSIEC), purchased from Cell Biologics were cultured in Epithelial Cell Medium/w Kit. HSIEC cells were incubated at 37° C. in a humidified atmosphere of 5% CO2. HSIEC cells were treated with mycoplasma removal reagent BM-Cyclin (Roche) to ensure mycoplasma negative before treatment.
# To do so, COX-2, an enzyme which mediates the bioconversion of arachidonic acid to inflammatory prostaglandins (PGs), was measured via densitometry. GAPDH was used as a reference housekeeping marker for relative densitometry measures. […] Ethanol or DMSO was used, as indicated in the figures, as a vehicle for dilution and as a negative control showing the amount of the inflammatory marker present when inflammation was not induced.
# Increasing doses of each molecule of interest, or each combination of molecules of interest, were then distributed to the HSIEC cells treated to induce inflammatory response. Inflammatory markers COX-2 and/or IL-6 were assessed at specific timepoints after induction of inflammation for protein content marker measured via western blot. GAPDH was used as a reference housekeeping marker for relative densitometry measures of protein content.
# [4] = test system: IL-6; experiment: IL-6 in HSIEC cells treated with TNF-α/IFN-γ; format: cell-based, human; details: single agent, escalating doses
# Description: as §1
# Induction of Inflammation in HSIECs and Treatment with Molecules of Interest: HSIEC cells grown to 80% confluence were treated with 10 ng/ml TNF-α/IFN-γ (Sigma) (Yang et al., 2015), for the time points indicated in FIG. 9, to assess the best time point for determination of anti-inflammatory potential of the molecules and formulations of interest. To do so, COX-2, an enzyme which mediates the bioconversion of arachidonic acid to inflammatory prostaglandins (PGs), was measured via densitometry. GAPDH was used as a reference housekeeping marker for relative densitometry measures. […] The anti-inflammatory potential of the molecules and formulations of interest were evaluated at 48 hours post-TNF-α/IFN-γ treatment in the HSIEC assays described below due to reduced variability and ability to assess differences between treatments. Ethanol or DMSO was used, as indicated in the figures, as a vehicle for dilution and as a negative control showing the amount of the inflammatory marker present when inflammation was not induced. […]
structure (smiles),measurement,setting,value
Cc1ccc(C(C)C)cc1O [carvacrol],doses resulting in reduction of IL-8,[1],all doses
same,"effect on cell growth / cellular metabolic activity (MTT, words)",[2],could only be studied at very low dose
same,Cellular Metabolic Activity,"[2]; 5 μM, 24 h",0.072
same,Cellular Metabolic Activity,"[2]; 5 μM, 48 h",0.175
same,Cellular Metabolic Activity,"[2]; 5 μM, 72 h",0.261
same,Cellular Metabolic Activity,"[2]; 5 μM, 96 h",0.501
same,Cellular Metabolic Activity,"[2]; 5 μM, time 0",0.022
same,Cellular Metabolic Activity,"[2]; 10 μM, 24 h",0.070
same,Cellular Metabolic Activity,"[2]; 10 μM, 48 h",0.164
same,Cellular Metabolic Activity,"[2]; 10 μM, 72 h",0.267
same,Cellular Metabolic Activity,"[2]; 10 μM, 96 h",0.487
same,Cellular Metabolic Activity,"[2]; 10 μM, time 0",0.021
same,Cellular Metabolic Activity,"[2]; 20 μM, 24 h",0.071
same,Cellular Metabolic Activity,"[2]; 20 μM, 48 h",0.171
same,Cellular Metabolic Activity,"[2]; 20 μM, 72 h",0.266
same,Cellular Metabolic Activity,"[2]; 20 μM, 96 h",0.461
same,Cellular Metabolic Activity,"[2]; 20 μM, time 0",0.022
same,Cellular Metabolic Activity,"[2]; 40 μM, 24 h",0.070
same,Cellular Metabolic Activity,"[2]; 40 μM, 48 h",0.159
same,Cellular Metabolic Activity,"[2]; 40 μM, 72 h",0.272
same,Cellular Metabolic Activity,"[2]; 40 μM, 96 h",0.544
same,Cellular Metabolic Activity,"[2]; 40 μM, time 0",0.022
same,Cellular Metabolic Activity,"[2]; 80 μM, 24 h",0.076
same,Cellular Metabolic Activity,"[2]; 80 μM, 48 h",0.120
same,Cellular Metabolic Activity,"[2]; 80 μM, 72 h",0.221
same,Cellular Metabolic Activity,"[2]; 80 μM, 96 h",0.423
same,Cellular Metabolic Activity,"[2]; 80 μM, time 0",0.025
same,Cellular Metabolic Activity,"[2]; 100 μM, 24 h",0.069
same,Cellular Metabolic Activity,"[2]; 100 μM, 48 h",0.106
same,Cellular Metabolic Activity,"[2]; 100 μM, 72 h",0.259
same,Cellular Metabolic Activity,"[2]; 100 μM, 96 h",0.397
same,Cellular Metabolic Activity,"[2]; 100 μM, time 0",0.026
same,Cellular Metabolic Activity,"[2]; 200 μM, 24 h",0.061
same,Cellular Metabolic Activity,"[2]; 200 μM, 48 h",0.088
same,Cellular Metabolic Activity,"[2]; 200 μM, 72 h",0.179
same,Cellular Metabolic Activity,"[2]; 200 μM, 96 h",0.238
same,Cellular Metabolic Activity,"[2]; 200 μM, time 0",0.027
same,Cellular Metabolic Activity,"[2]; 400 μM, 24 h",0.062
same,Cellular Metabolic Activity,"[2]; 400 μM, 48 h",0.079
same,Cellular Metabolic Activity,"[2]; 400 μM, 72 h",0.139
same,Cellular Metabolic Activity,"[2]; 400 μM, 96 h",0.137
same,Cellular Metabolic Activity,"[2]; 400 μM, time 0",0.027
same,doses reducing COX-2 to the greatest extent,[3],5 µM
same,doses resulting in reduction of IL-6,[4],10 µM
